From US7855073B2, “Cells containing a nanopatch sensor in their membrane” (Ben-Gurion University of the Negev Research and Development …, priority 2003, dated 2010)

How the values were obtained:
[1] = test system: cultured neuronal cells; experiment: Detection of membrane perturbations, nanopatch-containing neuron cells; type: cell-based, rat; conditions: 50 mM in medium; FIG. 7
Experimental: Cell cultures were prepared from the Hippocampi of one-day-old rat pups as follows. Tissue was treated for 30 min at 37° C. with 0.25% trypsin (type XI; Sigma), and then gently triturated and the dissociated cells were plated at a concentration of 2×10^5/ml onto poly-D-lysine ([…]; Sigma) and laminin ([…]; Collaborative Research)—coated glass coverslips. Cells were plated in Eagle's minimal essential medium (MEM) containing 10% heat-inactivated fetal bovine serum (HyClone), 2 mM glutamine, and 0.76% glucose. On the following day, the medium was replaced with fresh SF1C medium [Rayport, D. et al. (1992) J. Neurosci. 12, 4264-4280], including B-27 supplements (GIBCO). The cells were grown for up to 12 days in a humid incubator containing 5% CO2/95% air at 37° C. prior to use.
Cells were incubated with DMPE/DMPG/PDA-1:1:6 (mole ratio) vesicles in TG1 buffer (119 mM NaCl, 5 mM KCl, 30 mM Glucose, 32 mM Sucrose, 20 mM Hepes, pH=7.3) for 1 hour at room temperature. Following the fusion, vesicles were polymerized by UV irradiation at 254 nm for 10 seconds and the unbound vesicles were washed 3 times with TG1 buffer.
Fluorescent images of the cells were acquired using a Zeiss 200M microscope (Germany) fitted with a CY3 570-650 nm emission range filter (Chroma Technology Corp., Rockingham, Vt.) and CCD cooled camera (PCO). […]

[2] = test system: U937 cells; experiment: Detection of membrane perturbations by fluorescence microscopy, nanopatch-containing U937 cells; type: cell-based, human
Experimental: U937 cells were grown and prepared as described in section 1.1 of Example 1, hereinabove. The precursors of the Lipid/PDA constructs (i.e. a mixture of 10,12-tricosadiynoic acid, PE and PG at a molar ratio of 8:1:1) were prepared and introduced into the cells in accordance with the methods described in sections 1.2 and 1.3 of Example 1.
Separate aliquots of cells containing the lipid/PDA constructs were then subjected to the membrane-perturbing treatments described below.
Transmission differential interference contrast (DIC) and fluorescence images of the cells were acquired on a laser scanning confocal microscope (Olympus IX70) with an PlApo 60× objective using oil (NA 1.4). Excitation was at 488 nm using argon laser source. Emitted light was collected through a LP 560 nm filter.

[3] = test system: Erythrocyte "ghosts"; experiment: Detection of membrane perturbations, nanopatch-containing erythrocyte ghosts; type: cell-based; conditions: ghosts labeled with DMPC/PDA liposomes; FIG. 11
Experimental: Erythrocyte “ghosts” (i.e. emptied cells) were labeled with DMPC/PDA liposomes, following which the nanopatch-containing cells were treated with the membrane active compound melittin.

[4] = test system: CHO cells; experiment: Detection of membrane perturbations, nanopatch-containing CHO cells; type: cell-based; conditions: FIG. 10
Experimental: PDA nanopatch-containing CHO cells were prepared as described in Example 1, hereinabove, and treated with propranolol, a membrane-active pharmaceutical compound.

In the case of `[Ca+2]` [calcium ions], the “Fluorescent emission from the red phase of the polydiacetylene polymer” value [1] was “white fluorescent light emitted by the cells”.
`CCN(CC)CC(=O)Nc1c(C)cccc1C` [lidocaine] was tested, and the “Fluorescent emission of the lipid/PDA constructs (membrane perturbation)” value ([2]; 5 μM, 25° C., 5 to 15 minutes, FIG. 5) was “characteristic fluorescent emission” and the “Fluorescent emission of the lipid/PDA constructs (membrane perturbation)” value ([2]; 1 mM, FIG. 8 panel B) was “characteristic fluorescent emission associated with perturbation of the PDA construct is readily observed”.
For `CC[C@H](C)[C@H](NC(=O)CN)C(=O)NCC(=O)N[C@@H](C)C(=O)N[C@H](C(=O)N[C@@H](CC(C)C)C(=O)N[C@@H](CCCCN)C(=O)N[C@H](C(=O)N[C@@H](CC(C)C)C(=O)N[C@H](C(=O)N[C@H](C(=O)NCC(=O)N[C@@H](CC(C)C)C(=O)N1CCC[C@H]1C(=O)N[C@@H](C)C(=O)N[C@@H](CC(C)C)C(=O)N[C@H](C(=O)N[C@@H](CO)C(=O)N[C@@H](Cc1c[nH]c2ccccc12)C(=O)N[C@H](C(=O)N[C@@H](CCCCN)C(=O)N[C@@H](CCCNC(=N)N)C(=O)N[C@@H](CCCCN)C(=O)N[C@@H](CCCNC(=N)N)C(=O)N[C@@H](CCC(N)=O)C(=O)N[C@@H](CCC(N)=O)C(N)=O)[C@@H](C)CC)[C@@H](C)CC)[C@@H](C)O)[C@@H](C)O)C(C)C)C(C)C` [melittin], the “Fluorescent emission of the lipid/PDA constructs (membrane perturbation)” value ([2]; 5 μM and 50 μM, FIG. 8 panels C, D) was “results in the characteristic fluorescent emission”, the “Dependence of fluorescent emission on dose” value ([2]; 5 μM versus 50 μM, FIG. 8 panels C, D) was “dose-dependent” and the “Fluorescence from transformed red PDA” value [3] was “fluorescence spots”.
For `CC(C)NCC(O)COc1cccc2ccccc12` (centres unmarked) [propranolol], the “Fluorescent emission associated with perturbation of the PDA-lipid constructs” value [4] was “characteristic fluorescent emission associated with perturbation of the PDA-lipid constructs embedded in the cell membrane is readily observed”.
With `OC[C@H]1O[C@@](CO)(O[C@H]2O[C@H](CO)[C@@H](O)[C@H](O)[C@H]2O)[C@@H](O)[C@@H]1O` [sucrose] the “Fluorescent emission of the lipid/PDA constructs (membrane perturbation)” value ([2]; 1 M, 25° C., 5 to 15 minutes, FIG. 3) was “fluorescent emission”.
